{"source": "PubChem BioAssay AID2202557", "about": "(NIEHS Division of Translational Toxicology (DTT))", "note": "Calls of active or inactive are those of the source. How the calls were made is not given here."}
{"test_system": "in vitro micronucleus assay, mammalian cells", "test": "In vitro micronucleus assay, summary data"}
{"compound": "c1cc[n+]2c(c1)-c1cccc[n+]1CC2", "outcome": "active; positive"}
{"compound": "CCc1cccc(C)c1N(C(=O)CCl)C(C)COC", "note": "(stereo unspecified)", "outcome": "active; positive"}
{"compound": "CCOC(=O)C1=C[C@]2(CC)CCCN3CCc4c(n1c1ccccc41)[C@@H]32", "outcome": "active; positive"}
{"compound": "[Cl][In]([Cl])[Cl]", "outcome": "active; positive"}
{"compound": "CCCCCCOc1ccc(O)cc1", "outcome": "active; positive"}
{"compound": "NCP(=O)(O)O", "outcome": "inactive; negative"}
